Experiments:
[1] = target: T1, S15V-rP2X3R (Rattus norvegicus, UniProt P49654, S15V); parameters: method as in Obrecht et al., 2019; settings: previous screening; ref Obrecht et al., 2019; cited from earlier work
T1 construct: expressed in transfected cells; host or cells: Xenopus laevis oocytes (cRNA injection)
T1 sequence (P49654 1-397 S15V): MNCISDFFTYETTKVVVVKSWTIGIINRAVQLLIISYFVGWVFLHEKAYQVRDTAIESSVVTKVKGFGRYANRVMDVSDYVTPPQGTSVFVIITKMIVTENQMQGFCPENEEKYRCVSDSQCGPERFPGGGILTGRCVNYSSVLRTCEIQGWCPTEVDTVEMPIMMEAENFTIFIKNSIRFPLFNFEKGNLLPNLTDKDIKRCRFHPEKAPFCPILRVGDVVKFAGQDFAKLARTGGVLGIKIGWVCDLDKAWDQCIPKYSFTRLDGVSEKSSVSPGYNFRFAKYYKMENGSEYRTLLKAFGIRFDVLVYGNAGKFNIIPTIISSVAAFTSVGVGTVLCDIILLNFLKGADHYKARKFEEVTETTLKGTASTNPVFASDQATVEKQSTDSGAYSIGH

[2] = system: COX1; parameters: method as in Warner et al., 1999; settings: ref Warner et al., 1999; cited from earlier work
[3] = target: T2, N190A/S15V-hP2X3R (Homo sapiens, UniProt P56373, N190A/S15V); assay: TEVC of ATP-induced currents, N190A/S15V-hP2X3R mutant in X. laevis oocytes; assay type: cell-based; settings: read-out: % inhibition of 10 µM ATP-induced currents by 10 µM diclofenac
T2 construct: expressed in transfected cells; host or cells: Xenopus laevis oocytes (cRNA injection)
T2 sequence (P56373 1-397 S15V/N190A): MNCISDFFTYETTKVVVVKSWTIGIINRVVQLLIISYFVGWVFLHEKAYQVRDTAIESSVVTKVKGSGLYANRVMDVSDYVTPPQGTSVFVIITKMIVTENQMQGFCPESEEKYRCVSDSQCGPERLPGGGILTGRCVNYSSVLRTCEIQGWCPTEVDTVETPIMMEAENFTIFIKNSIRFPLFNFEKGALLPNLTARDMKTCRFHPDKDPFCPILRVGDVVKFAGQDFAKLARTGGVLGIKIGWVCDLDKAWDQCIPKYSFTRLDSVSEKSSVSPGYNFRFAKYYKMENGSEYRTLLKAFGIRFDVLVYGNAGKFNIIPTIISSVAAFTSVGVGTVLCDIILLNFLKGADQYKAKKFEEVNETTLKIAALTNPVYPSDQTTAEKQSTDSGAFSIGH
Experimental: Ion currents mediated by P2X receptors were evoked by the indicated concentration of ATP or α,β-meATP and were recorded 1 or 2 days after cRNA injection at ambient temperature at a holding potential of −60 mV by two-electrode voltage clamp (TEVC) as previously described ([Hausmann et al., 2006]). Calcium-free ORi^− solution (90 mM NaCl, 1 mM KCl, 2 mM MgCl2, 10 mM HEPES, pH 7.4) was used to avoid bias due to calcium-activated chloride channels (CaCC) endogenously expressed in X. laevis oocytes ([Miledi, 1982]; [Methfessel et al., 1986]). […]
In the case of fast-desensitizing P2XR subtypes (P2X1R and P2X3R), ATP is applied five times in repetition, and the ATP-induced current amplitude in the presence (after pre-incubation) of the antagonist (fourth application) is compared to the arithmetic mean of flanking control ATP-induced current amplitudes in the absence of the antagonist (third and fifth ATP application). […] The correction factor was calculated as the ratio of the fourth ATP-induced current amplitude to the third amplitude (Eq. 3) when the experiment was performed in the absence of the antagonist. […] Since the magnitude of the run-down varies from day to day and batch to batch of oocytes, the correction factor was determined on each day of the experiments and was calculated as the arithmetic mean of several recordings (at least 3–5 and on average 5) on each day. […]

[4] = system: G189A/S15V-hP2X3R; assay: TEVC of ATP-induced currents, G189A/S15V-hP2X3R mutant in X. laevis oocytes; assay type: cell-based, human; settings: ± SEM

For `O=C(O)Cc1ccccc1Nc1c(Cl)cccc1Cl` [Diclofenac, diclofenac], the “inhibition of S15V-rP2X3R-mediated currents in screening” value [1] is given as greater than 80%, the IC50 [2] is given as […] and the inhibition at 10 µM [3] is given as 8.1%. The “% inhibition of 10 µM ATP-induced currents by 10 µM diclofenac” value [4] was 6.4% ± 3.0%.

From article PMC10060569 (Frontiers in Pharmacology, 2023)
